Patent publication US20040082503A1, “Methods for treatment of diabetes using peptide analogues of insulin” (Neurocrine Biosciences, Inc., priority 1998, published 2004)

Key:
[1] = test system: Insulin specific NOD T cell clone PD6-4.3; assay: Proliferation of insulin-specific NOD T cell clone PD6-4.3; type: cell-based, mouse (NOD); details: 50 μg/ml peptide, 72 h, 3H-thymidine; no antigen 163 cpm
Method: (§1) Insulin specific NOD T cell lines were established by culturing lymphocytes isolated from islet-infiltrating populations by in vitro stimulation with either porcine insulin at 25 μg/ml and irradiated NOD islet cell in the presence of irradiated NOD spleen cells as antigen presenting cells and cytokines. To obtain the infiltrating lymphocytes the following procedures were performed (see Wegmann et al., Eur. J. Immunol. 24:1853, 1994): the pancreas from the NOD mouse was digested with collagenase and individual islets were isolated manually. The infiltrating lymphocytes were then obtained by mild trypsin digestion of the islets. The insulin specific T cell lines or clones were propagated by serial stimulation in the presence of NOD spleen cells, porcine insulin and lymphokines. Clones were obtained by limiting dilution of the B chain (9-23) specific T cell lines in the presence of the antigen presenting cells and porcine insulin at 25 μg/ml. Wells with a growing population of cells following limiting dilution were expanded in appropriate medium, and after one cycle of growth were tested for reactivity to the B chain (9-23) peptide of insulin by evaluating the proliferative response.
(§2) Insulin B chain (9-23) (SEQ ID NO:2) specific mouse (NOD) T cell clones were isolated from infiltrated islets as described in Example 2. Peptide analogues with single alanine substitutions were prepared as described in Example 1. The effect of each analogue on T cell proliferation was then evaluated using an assay performed in 96-well flat bottom microtiter plates (see Daniel et al., Eur. J. Immunol. 25:1056, 1995). Briefly 25,000 T cell clones along with 1 million irradiated NOD spleen cells were cultured in the presence of 50 μg/ml of insulin B chain 9-23 peptide or any of the alanine substituted peptides listed below in triplicate sets. The plates were incubated for a total of 72 hours in 7% carbon dioxide atmosphere with a pulse of 1 μCi/well of tritiated thymidine for the last 6-8 hours of culture. Cells were harvested on a glass fiber filter and the associated radioactivity was counted in a liquid scintillation counter. Results are expressed as mean counts per minute of triplicate wells.

[2] = test system: Insulin specific NOD T cell clone PD12-2.40; assay: Proliferation of insulin-specific NOD T cell clone PD12-2.40; type: cell-based, mouse (NOD); details: 50 μg/ml peptide, 72 h, 3H-thymidine; no antigen 682 cpm
Method: as §1, §2
(§3) NOD T cell clones were incubated in the presence of 50 μM of either the native B chain (9-23) peptide or NBI-6024. The data in Table 3 represent the mean of triplicate sample±standard error of the mean. Within Table 3, S.I. (Stimulation Index)=proliferation (cpm) in the presence of the peptide/proliferation (cpm) in medium alone.

[3] = test system: Insulin specific NOD T cell clone PD12-4.4; assay: Proliferation of insulin-specific NOD T cell clone PD12-4.4; type: cell-based, mouse (NOD); details: 50 μg/ml peptide, 72 h, 3H-thymidine; no antigen 350 cpm
Method: as §1, §2

[4] = test system: Insulin specific NOD T cell clone PD12-4.29; assay: Proliferation of insulin-specific NOD T cell clone PD12-4.29; type: cell-based, mouse (NOD); details: 50 μg/ml peptide, 72 h, 3H-thymidine; no antigen 789 cpm
Method: as §1, §2

[5] = test system: Insulin specific NOD T cell clone PD12-4.34; assay: Proliferation of insulin-specific NOD T cell clone PD12-4.34; type: cell-based, mouse (NOD); details: 50 μg/ml peptide, 72 h, 3H-thymidine; no antigen 231 cpm
Method: as §1, §2

[6] = test system: Insulin B chain (9-23) specific mouse (NOD) T cell clones; assay: Proliferation of insulin-specific NOD T cell clones (summary over clones); type: cell-based; details: five separate T cell clones; 50 μg/ml peptide
Method: as §1, §2, §3

[7] = test system: B chain (9-23) specific mouse T cell clones; assay: Antagonism of T cell proliferation assay (FIG. 2); type: cell-based, mouse (NOD); details: varying amounts of analogue
Method: FIG. 2 is a graph showing the proliferative response (measured in cpm) of a NOD mouse T cell clone to a native insulin B chain (9-23) peptide in the presence of varying amounts of representative peptide analogues, in which different residues are substituted with alanine, as indicated.
Peptide analogues of B chain (9-23) containing alanine substitutions at residue 12, 13, 15 or 16 or the doubly substituted peptide at positions 16 and 19 (A^16,19; NBI-6024) were prepared as described in Example 1. T cell antagonism was detected by evaluating the ability of the peptide analogues to inhibit T cell proliferation induced by native B chain (9-23) (SEQ ID NO:2). In this assay, antigen presenting cells were first irradiated and then incubated with the competing peptide analogue and the native B chain (9-23) peptide. T cells were then added to the culture. Various concentrations of candidate peptide analogues were included in cultures which were incubated for a total of 4 days. Following this incubation period, each culture was pulsed with 1 μCi of [^3H]-thymidine for an additional 12-18 hours. Cultures were then harvested on fiberglass filters and counted as above. Mean CPM and standard error of the mean were calculated from data determined in triplicate cultures.

[8] = test system: NOD mice (spontaneous diabetes); assay: Reduction of incidence of diabetes in NOD mice; type: in vivo, NOD mouse; details: NOD mice, 400 μg s.c. weekly, 13 treatments; neurotensin as control; FIG. 10

| Substance | Response (cpm) of T cell clone PD6-4.3 [1] [cpm] | Response (cpm) of T cell clone PD12-2.40 [2] [cpm] | Response (cpm) of T cell clone PD12-4.4 [3] [cpm] | Response (cpm) of T cell clone PD12-4.29 [4] [cpm] | Response (cpm) of T cell clone PD12-4.34 [5] [cpm] | Proliferation relative to the 9-23 native peptide of insulin B chain [6] | Inhibition of T cell proliferation induced by native B chain (9-23) [7] | Incidence of diabetes (percent of mice diabetic) [8] |
| --- | --- | --- | --- | --- | --- | --- | --- | --- |
| Position 10: insulin B chain (9-23) analogue, native H at position 10 substituted with A | 12507 | 1409 | 823 | 15484 | 356 | – | – | – |
| Position 11: insulin B chain (9-23) analogue, native L at position 11 substituted with A | 14148 | 2594 | 474 | 18416 | 190 | – | – | – |
| Position 12: insulin B chain (9-23) analogue, native V at position 12 substituted with A (SHLAEALYLVCGERG) | 8292 | 671 | 1129 | 15041 | 194 | either a lack of proliferation or significantly reduced proliferation | capable of attenuating the response | – |
| Position 13: insulin B chain (9-23) analogue, native E at position 13 substituted with A (SHLVAALYLVCGERG) | 142 | 519 | 373 | 891 | 179 | either a lack of proliferation or significantly reduced proliferation | capable of attenuating the response | more pronounced |
| Position 15: insulin B chain (9-23) analogue, native L at position 15 substituted with A (SHLVEAAYLVCGERG) | 161 | 1422 | 675 | 809 | 191 | either a lack of proliferation or significantly reduced proliferation | – | – |
| Position 16: insulin B chain (9-23) analogue, native Y at position 16 substituted with A (SHLVEALALVCGERG) | 98 | 539 | 779 | 636 | 202 | either a lack of proliferation or significantly reduced proliferation | capable of attenuating the response | – |
| Position 17: insulin B chain (9-23) analogue, native L at position 17 substituted with A | 553 | 19321 | 332 | 1460 | 4360 | either a lack of proliferation or significantly reduced proliferation | – | – |
| Position 18: insulin B chain (9-23) analogue, native V at position 18 substituted with A | 234 | 44785 | 225 | 1193 | 721 | either a lack of proliferation or significantly reduced proliferation | – | – |
| Position 19: insulin B chain (9-23) analogue, native C at position 19 substituted with A | 7678 | 34212 | 4295 | 6054 | 689 | – | – | – |
| Position 20: insulin B chain (9-23) analogue, native G at position 20 substituted with A | 2440 | 38685 | 1323 | 13736 | 466 | – | – | – |
| Position 21: insulin B chain (9-23) analogue, native E at position 21 substituted with A | 91 | 39087 | 7900 | 4904 | 773 | – | – | – |
| Position 22: insulin B chain (9-23) analogue, native R at position 22 substituted with A | 6555 | 51721 | 1313 | 12635 | 1555 | – | – | – |
| Position 23: insulin B chain (9-23) analogue, native G at position 23 substituted with A | 14304 | 75441 | 3228 | 18422 | 791 | – | – | – |
